Values joined by “and” are separate entries in the source; they are usually repeats but may differ in a detail not shown here. Equal values may be shown once. Marks after values point to notes of the source that are not given here.
Legend:
[1] = test system: mouse 6-Hz psychomotor seizure model; test: Antiepileptic effect in mouse 6-Hz psychomotor seizure model; assay type: in vivo; conditions: 6-Hz model, C57BL/6 mice, gavage
Experimental: A negative vehicle control group, a positive drug control group (pregabalin and gabapentin) and a test group of the compounds of the present application were set. Male C57BL/6 mice with a body weight of 20±2 g were selected. […] After fasted for 12 h, the mice were administered the compounds of the present application or the control drugs, and then subjected to 6-Hz electrical stimulation to induce epilepsy seizure behaviors after a certain time interval (2 h for pregabalin, 1 h for gabapentin, 1 h for levetiracetam, and 3 h for the compounds of the present application). In an induction model, when the stimulation was performed with a Model 4100 stimulator (A-M Systems, the United States), rear necks of the mice were immobilized by hands on a feeding cage, a corneal electrode was moisten with normal saline and allowed to gently contact bilateral corneas of the mice, the electrical stimulator was trod by a foot to give the mice the electrical stimulation with a stimulation parameter of 6-Hz, a one-way square wave of 32 mA, a wave width of 0.2 ms and a stimulation duration of 3 sec, and timing was performed with a stopwatch during the stimulation. After the electrical stimulation was completed, the mice with the seizure behaviors lasting for less than 7 sec were regarded as being protected by the drugs, and the mice with the seizure behaviors lasting for more than 7 sec were regarded as being not protected from the epilepsy by the drugs. Response situations of the animals were observed and recorded, and obtained data were counted to calculate protection rates of the compounds.
Statistical method: The protection rates of different administration groups were separately compared with that of the vehicle control group to carry out a Fisher's exact test.

motor functions of rats = test: Rotarod test of impact on motor functions of rats; conditions: male SD rats; for impact on rotarod behaviors of the rats: gavage 10 mg/kg (calculated by free base); for impact on rotarod behaviors of the rats / impact on rotarod behaviors of the rats (impacted proportion): FIG. 7; for impact on rotarod behaviors of the rats (impacted proportion): gavage 30 mg/kg (calculated by free base)
Experimental: A negative vehicle control, a positive drug control group (pregabalin, (PGB), 10 mg/kg, 30 mg/kg) were set, and a test group (including (+)—I-3 p-toluenesulfonate at 10 mg/kg (calculated by free base), (+)—I-4 p-toluenesulfonate at 10 mg/kg (calculated by free base), (+)—I-3 p-toluenesulfonate at 30 mg/kg (calculated by free base) and (+)—I-4 p-toluenesulfonate at 30 mg/kg (calculated by free base)) were set. Male SD rats with the body weight of 200-250 g were selected, with 10 animals in each administration group. AYLS-31A fatigue rota-rod (Shanghai Xinruan Information Technology Co., Ltd.) was used as rotarod test equipment, and a rotation speed was set at a constant speed of 6 rpm. A screening test was carried out on the first day. Tail tips of the rats were pinched, placed on the rotarod, and released the same after the rats maintained balance on the rotarod and moved along with the rotarod. The falling number of the rats within the next 1 min was recorded and counted. The rats that fell for 3 times within 1 min were excluded, which were not used for subsequent drug evaluation. A drug evaluation test was carried out on the second day. The rats were fasted for 8 h before the test, then a rotarod test was carried out once to serve as a time point (BL) before administration, and then administration was performed by gavage. […] The falling number of the rats within 1 min was recorded and counted. The rats falling for 3 times within one min were regarded as having “motor function impairments” caused by drug toxicity. The “motor function impairment” degree (rotarod fall) of each administration group at a specific time point was calculated as a proportion of a number of the animals with “motor function impairments” in the group to a total number of the animals in the group.
The rotarod test is a classic test for measuring the damage of compounds to motor functions of animals.

postherpetic neuralgia = conditions: 150-600 mg per day; cited from earlier work
male SD rats = test: Acute toxicity test on rats; conditions: for Observation of clinical symptoms 0.5 h / Observation of clinical symptoms 1 h / Observation of clinical symptoms 2 h / Observation of clinical symptoms 4 h / Observation of clinical symptoms 6 h / Observation of clinical symptoms 24 h: per animal
Experimental: After adapting to the environment for one week, the SD rats were used in a preliminary acute toxicity test. The compounds were newly formulated on the day of the test. […] After being labeled and weighed, the animals were randomly grouped with 2-4 animals in each group. […] Clinical symptoms of each animal were observed and recorded at 0.5 hours, 1 hour, 2 hours, 4 hours, 6 hours and 24 hours after the administration, respectively. Clinical symptom codes were as follows: 0 no abnormality, 1 mild tremor, 2 unsteady gait, 3 prone position, 4 startle reflex, 5 difficult breathing, 6 righting reflex disappeared, 7 eyelid closure, 8 shortness of breath, and x animal death.

[2] = dose 60 mg/kg (calculated by free base)
[3] = oral gavage 163.8 mg/kg (calculated by free base)
[4] = oral gavage 300 mg/kg (calculated by free base)

CC(C)C[C@H](CN)CC(=O)O [Pregabalin]
Number of animals with clonic seizures/total number ([1]; dose 30 mg/kg): 1/6** | Protection rate (%) ([1]; dose 30 mg/kg): 83.3 *** % | impact on rotarod behaviors of the rats (motor functions of rats): no significant impact | time of maximum impact on the rotarod behaviors after the administration (motor functions of rats; gavage 30 mg/kg): 4 h | impact on rotarod behaviors of the rats (impacted proportion) (motor functions of rats): obvious toxic responses | clinical effective rate (postherpetic neuralgia): 26%-50

Cc1ccc(S(=O)(=O)O)cc1.NCC1(CC(=O)O)CC2C3C=CC(C3)C21 (single isomer, unassigned; (+)) [(+)-I-4 p-toluenesulfonate]
Number of animals with clonic seizures/total number [1, 2]: 2/4 | Protection rate (%) [1, 2]: 50.0 * % | impact on rotarod behaviors of the rats (motor functions of rats): no significant impact | impact on rotarod behaviors of the rats (impacted proportion) (motor functions of rats): smaller than that in the PGB group | abnormal behaviors at 0-24 h after the administration (male SD rats; [3]): no obvious abnormal behaviors | Observation of clinical symptoms 0.5 h (male SD rats; [3]): 0 | Observation of clinical symptoms 1 h (male SD rats; [3]): 0 | Observation of clinical symptoms 2 h (male SD rats; [3]): 0 | Observation of clinical symptoms 4 h (male SD rats; [3]): 0 | Observation of clinical symptoms 6 h (male SD rats; [3]): 0 | Observation of clinical symptoms 24 h (male SD rats; [3]): 0 | animal death (male SD rats; [4]): no animals are dead | Observation of clinical symptoms 0.5 h (male SD rats; [4]): 0 | Observation of clinical symptoms 1 h (male SD rats; [4]): 3 | Observation of clinical symptoms 2 h (male SD rats; [4]): 0 | Observation of clinical symptoms 6 h (male SD rats; [4]): 0 | Observation of clinical symptoms 24 h (male SD rats; [4]): 0 | Observation of clinical symptoms 4 h (male SD rats; oral gavage 300 mg/kg (calculated by free base), 300 mg/kg): 3 and 0

From patent US20260174682A1, “GAMMA-AMINOBUTYRIC ACID DERIVATIVE COMPRISING POLYCYCLIC STRUCTURE, METHOD FOR PREPARING SAME, AND USE THEREOF” (ZHONGSHAN INSTITUTE FOR DRUG DISCOVERY, SIMM, CAS., priority 2022, published 2026)
